Assay results taken from paper PMC10329798 (Virology Journal, 2023).
Where two headings read alike, the source gives them in different places.

Key:
[1] = target: T1, SARS-CoV-2 E protein (2-E) (Severe acute respiratory syndrome coronavirus 2, UniProt P0DTC4); assay: cell-based; type: biochemical
[2] = target: T1, SARS-CoV-2 E protein (2-E); assay: cell-based
SARS-CoV E protein (1-E) = details: 1-E protein, cell viability assay; read-out: IC50, inhibition data from published 1-E protein; cited from earlier work
SARS-CoV-2 = details: in vitro, Vero-h/SLAM cells; cited from earlier work
[3] = read-out: IC50, patch-clamp electrophysiology, 2-E
[4] = read-out: IC50, cell viability assay, 2-E protein

T1 sequence (P0DTC4 whole entry): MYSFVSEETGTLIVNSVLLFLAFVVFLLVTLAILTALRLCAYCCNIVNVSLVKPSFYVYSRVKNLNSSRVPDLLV

Molecule: CCC(C)C1OC2(CCC1C)CC1CC(CC=C(C)C(O)C(C)C=CC=C3COC4C(O)C(C)=CC(C(=O)O1)C34O)O2 (stereo not drawn) [ivermectin aglycon]
- IC50 [1, 3]: 5 ± 1.3 nM

Molecule: NC(N)=NC(=O)c1nc(Cl)c(N2CCCCCC2)nc1N [HMA, 5-(N,N-hexamethylene)amiloride]
- IC50 [2, 4]: 1500 ± 300 nM
- IC50 [1, 3]: 1.9 ± 0.3 nM
- Concentration with cytotoxic effects / onset of cell toxicity (HEK293 cells): > 10 µM
- IC50 (SARS-CoV E protein (1-E)): 2600 ± 400 nM

Molecule: CC1=C[C@H]2C(=O)O[C@H]3C[C@@H](C/C=C(\C)C[C@@H](C)/C=C/C=C4\CO[C@H]([C@@H]1O)[C@@]42O)O[C@]1(C3)C[C@H](O)[C@H](C)[C@@H](/C(C)=C/C(C)C)O1 [nemadectin]
- IC50, patch-clamp electrophysiology, 2-E [1]: not active
- Inhibition of 2-E protein-mediated currents ([1]; any of the tested concentrations): did not observe inhibition
- Concentration with cytotoxic effects / onset of cell toxicity (HEK293 cells; human): 2 µM

Molecule: CC(N)C12CC3CC(CC(C3)C1)C2 (stereo not drawn) [rimantadine]
- IC50 [2]: 8900 ± 2200 nM
- IC50 [1]: 3.6 ± 0.6 nM
- Concentration with cytotoxic effects / onset of cell toxicity (HEK293 cells): not cytotoxic
- IC50 (SARS-CoV E protein (1-E)): 10900 ± 3300 nM

Molecule: ivermectin
- Inhibition of the 2-E protein in the cell viability assay [2]: showed inhibiting effects
- IC50 [1, 3]: 0.88 ± 0.1 nM
- Reduction in SARS-CoV-2 viral RNA (SARS-CoV-2): 5000 fold

Molecule: CC1=C[C@H]2C(=O)O[C@H]3C[C@@H](C/C=C(\C)C[C@@H](C)/C=C/C=C4\CO[C@H]([C@@H]1O)[C@@]42O)O[C@@]1(CC[C@H](C)[C@@H](C)O1)C3 [milbemycin]
- IC50 [1]: 2.21 ± 0.65 nM
- Concentration with cytotoxic effects / onset of cell toxicity (HEK293 cells; human): ~ 10 µM

Molecule: NC12CC3CC(CC(C3)C1)C2 [amantadine]
- IC50 [2, 4]: 89000 ± 27000 nM
- IC50 [1, 3]: 24.1 ± 6.5 nM
- Concentration with cytotoxic effects / onset of cell toxicity (HEK293 cells): not cytotoxic
- IC50 (SARS-CoV E protein (1-E)): 77000 ± 13000 nM
